Laboratory results published in ChEMBL document CHEMBL1201862, “PubChem BioAssay data set” (2004).
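Grown in 96-well plates, cells were treated for 48 hours with each compound at five concentrations. Insufficient inhibition: endpoint recorded as highest concentration tested. GI50 is the concentration that inhibits growth by half.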 Active and inactive are the calls of the source. Rule as the data show it: active = GI50 up to about 1.1 µM and inactive = higher.

How the values were obtained:
Assay in all cases: inhibition of tumour cell growth, NCI panel, 48 h
786-0 = test system: 786-0
ACHN = test system: ACHN
CCRF-CEM = test system: CCRF-CEM
DU-145 = test system: DU-145
HOP-62 = test system: HOP-62
HOP-92 = test system: HOP-92
HT-29 = test system: HT-29
LOX IMVI = test system: LOX IMVI
M14 = test system: M14
NCI-H460 = test system: NCI-H460
OVCAR-5 = test system: OVCAR-5
OVCAR-8 = test system: OVCAR-8
RPMI-8226 = test system: RPMI-8226
RXF 393 = test system: RXF 393
SK-MEL-28 = test system: SK-MEL-28
SK-MEL-5 = test system: SK-MEL-5
SK-OV-3 = test system: SK-OV-3
SW-620 = test system: SW-620
TK-10 = test system: TK-10

| Compound | GI50 (786-0) | GI50 (ACHN) | GI50 (CCRF-CEM) | GI50 (DU-145) | GI50 (HOP-62) | GI50 (HOP-92) | GI50 (HT-29) | GI50 (LOX IMVI) | GI50 (M14) | GI50 (NCI-H460) | GI50 (OVCAR-5) | GI50 (OVCAR-8) | GI50 (RPMI-8226) | GI50 (RXF 393) | GI50 (SK-MEL-28) | GI50 (SK-MEL-5) | GI50 (SK-OV-3) | GI50 (SW-620) | GI50 (TK-10) |
| --- | --- | --- | --- | --- | --- | --- | --- | --- | --- | --- | --- | --- | --- | --- | --- | --- | --- | --- | --- |
| COc1ccc2c(c1)c1nn(CCN3CCCCC3)c3ccc4c(=O)n(CCN(C)C)c(=O)n2c4c13 | < 0.01 µM (active) | < 0.01 µM (active) | < 0.01 µM (active) | < 0.01 µM (active) | < 0.01 µM (active) | 0.152 µM (active) | < 0.01 µM (active) | < 0.01 µM (active) | 0.0188 µM (active) | < 0.01 µM (active) | < 0.0105 µM (active) | < 0.01 µM (active) | < 0.01 µM (active) | < 0.0164 µM (active) | 0.139 µM (active) | 0.0406 µM (active) | 0.565 µM (active) | < 0.01 µM (active) | 0.029 µM (active) |
| Cc1ccc(SC2=C(N(C)C)C(=O)c3ccccc3C2=O)cc1 | 3.82 µM (inactive) | 6.87 µM (inactive) | 1.55 µM (inactive) | 10.7 µM (inactive) | 8.2 µM (inactive) | 4.71 µM (inactive) | 6.27 µM (inactive) | 3.35 µM (inactive) | 3.27 µM (inactive) | 6.3 µM (inactive) | 12.9 µM (inactive) | 1.91 µM (inactive) | 2.54 µM (inactive) | 6.15 µM (inactive) | 10.3 µM (inactive) | 2.31 µM (inactive) | 10.7 µM (inactive) | 1.46 µM (inactive) | 7.43 µM (inactive) |
| CCOC(=O)/C(=C\Nc1c(C)n(C)n(-c2ccccc2)c1=O)C(=O)c1ccccc1 | > 100 µM (inactive) | > 100 µM (inactive) | > 100 µM (inactive) | > 100 µM (inactive) | > 100 µM (inactive) | > 100 µM (inactive) | > 100 µM (inactive) | > 100 µM (inactive) | > 100 µM (inactive) | > 100 µM (inactive) | > 100 µM (inactive) | – | > 100 µM (inactive) | > 100 µM (inactive) | > 100 µM (inactive) | > 100 µM (inactive) | > 100 µM (inactive) | > 100 µM (inactive) | > 100 µM (inactive) |
| COC1/C=C/C(C)C(O)CC(O)/C=C/C(C)C(C(C)C(OC)C(C)CCC(=O)C(C)C(C/C=C/N(C)C=O)OC)OC(=O)/C=C/C=C(\C)CC(OC)CC2=CC(=O)O[C@@H](C(C)C(OC)C1)[C@H]2O (some centres undefined) | < 0.005 µM (active) | < 0.005 µM (active) | 0.00687 µM (active) | 0.0221 µM (active) | 0.00515 µM (active) | 0.00612 µM (active) | < 0.005 µM (active) | < 0.005 µM (active) | < 0.005 µM (active) | < 0.005 µM (active) | 0.0103 µM (active) | < 0.005 µM (active) | 0.00783 µM (active) | < 0.005 µM (active) | 0.00588 µM (active) | < 0.005 µM (active) | < 0.005 µM (active) | < 0.005 µM (active) | 0.00542 µM (active) |
| CCOC(=O)/C(C(=S)NC)=C(/N)N1CCCC1 | > 100 µM (inactive) | > 100 µM (inactive) | > 100 µM (inactive) | > 100 µM (inactive) | > 100 µM (inactive) | > 100 µM (inactive) | > 100 µM (inactive) | > 100 µM (inactive) | > 100 µM (inactive) | > 100 µM (inactive) | > 100 µM (inactive) | > 100 µM (inactive) | > 100 µM (inactive) | > 100 µM (inactive) | > 100 µM (inactive) | > 100 µM (inactive) | > 100 µM (inactive) | > 100 µM (inactive) | > 100 µM (inactive) |
